According to patent US8404849B2, “Processes for producing modulators of cystic fibrosis transmembrane conductance regulator” (Vertex Pharmaceuticals, priority 2010, dated 2013):

Target: T1, ΔF508-CFTR (Homo sapiens, UniProt P13569, DEL508-508)
T1 construct: expressed in transfected cells; host or cells: NIH3T3 mouse fibroblasts, stably expressing, cultured at 27 °C (temperature-corrected)
Assay: Membrane potential optical assay for identification of ΔF508-CFTR potentiators (FLIPR III, forskolin activation)
Format: cell-based
Settings: for Emax: NIH3T3, 100% efficacy is the maximum response obtained with 4-methyl-2-(5-phenyl-1H-pyrazol-3-yl)phenol, ΔF508 CFTR NIH 3T3 cells; for EC50: temperature-corrected ΔF508 CFTR NIH 3T3 cells
Source text: The assay utilizes fluorescent voltage sensing dyes to measure changes in membrane potential using a fluorescent plate reader (e.g., FLIPR III, Molecular Devices, Inc.) as a readout for increase in functional ΔF508-CFTR in NIH 3T3 cells. The driving force for the response is the creation of a chloride ion gradient in conjunction with channel activation by a single liquid addition step after the cells have previously been treated with compounds and subsequently loaded with a voltage sensing dye.
To identify potentiators of ΔF508-CFTR, a double-addition HTS assay format was developed. This HTS assay utilizes fluorescent voltage sensing dyes to measure changes in membrane potential on the FLIPR III as a measurement for increase in gating (conductance) of ΔF508 CFTR in temperature-corrected ΔF508 CFTR NIH 3T3 cells. The driving force for the response is a Cl^− ion gradient in conjunction with channel activation with forskolin in a single liquid addition step using a fluorescent plate reader such as FLIPR III after the cells have previously been treated with potentiator compounds (or DMSO vehicle control) and subsequently loaded with a redistribution dye.
Solutions • Bath Solution #1: (in mM) NaCl 160, KCl 4.5, CaCl2 2, MgCl2 1, HEPES 10, pH 7.4 with NaOH. Chloride-Free Bath Solution: Chloride Salts in Bath Solution #1 are Substituted with Gluconate Salts.
NIH3T3 mouse fibroblasts stably expressing ΔF508-CFTR are used for optical measurements of membrane potential. The cells are maintained at 37° C. in 5% CO2 and 90% humidity in Dulbecco's modified Eagle's medium supplemented with 2 mM glutamine, 10% fetal bovine serum, 1×NEAA, β-ME, 1× pen/strep, and 25 mM HEPES in 175 cm^2 culture flasks. For all optical assays, the cells were seeded at ˜20,000/well in 384-well matrigel-coated plates and cultured for 2 hrs at 37° C. before culturing at 27° C. for 24 hrs. for the potentiator assay. For the correction assays, the cells are cultured at 27° C. or 37° C. with and without compounds for 16-24 hours.

T1 sequence (P13569 with tags, fused parts or gaps DEL508-508): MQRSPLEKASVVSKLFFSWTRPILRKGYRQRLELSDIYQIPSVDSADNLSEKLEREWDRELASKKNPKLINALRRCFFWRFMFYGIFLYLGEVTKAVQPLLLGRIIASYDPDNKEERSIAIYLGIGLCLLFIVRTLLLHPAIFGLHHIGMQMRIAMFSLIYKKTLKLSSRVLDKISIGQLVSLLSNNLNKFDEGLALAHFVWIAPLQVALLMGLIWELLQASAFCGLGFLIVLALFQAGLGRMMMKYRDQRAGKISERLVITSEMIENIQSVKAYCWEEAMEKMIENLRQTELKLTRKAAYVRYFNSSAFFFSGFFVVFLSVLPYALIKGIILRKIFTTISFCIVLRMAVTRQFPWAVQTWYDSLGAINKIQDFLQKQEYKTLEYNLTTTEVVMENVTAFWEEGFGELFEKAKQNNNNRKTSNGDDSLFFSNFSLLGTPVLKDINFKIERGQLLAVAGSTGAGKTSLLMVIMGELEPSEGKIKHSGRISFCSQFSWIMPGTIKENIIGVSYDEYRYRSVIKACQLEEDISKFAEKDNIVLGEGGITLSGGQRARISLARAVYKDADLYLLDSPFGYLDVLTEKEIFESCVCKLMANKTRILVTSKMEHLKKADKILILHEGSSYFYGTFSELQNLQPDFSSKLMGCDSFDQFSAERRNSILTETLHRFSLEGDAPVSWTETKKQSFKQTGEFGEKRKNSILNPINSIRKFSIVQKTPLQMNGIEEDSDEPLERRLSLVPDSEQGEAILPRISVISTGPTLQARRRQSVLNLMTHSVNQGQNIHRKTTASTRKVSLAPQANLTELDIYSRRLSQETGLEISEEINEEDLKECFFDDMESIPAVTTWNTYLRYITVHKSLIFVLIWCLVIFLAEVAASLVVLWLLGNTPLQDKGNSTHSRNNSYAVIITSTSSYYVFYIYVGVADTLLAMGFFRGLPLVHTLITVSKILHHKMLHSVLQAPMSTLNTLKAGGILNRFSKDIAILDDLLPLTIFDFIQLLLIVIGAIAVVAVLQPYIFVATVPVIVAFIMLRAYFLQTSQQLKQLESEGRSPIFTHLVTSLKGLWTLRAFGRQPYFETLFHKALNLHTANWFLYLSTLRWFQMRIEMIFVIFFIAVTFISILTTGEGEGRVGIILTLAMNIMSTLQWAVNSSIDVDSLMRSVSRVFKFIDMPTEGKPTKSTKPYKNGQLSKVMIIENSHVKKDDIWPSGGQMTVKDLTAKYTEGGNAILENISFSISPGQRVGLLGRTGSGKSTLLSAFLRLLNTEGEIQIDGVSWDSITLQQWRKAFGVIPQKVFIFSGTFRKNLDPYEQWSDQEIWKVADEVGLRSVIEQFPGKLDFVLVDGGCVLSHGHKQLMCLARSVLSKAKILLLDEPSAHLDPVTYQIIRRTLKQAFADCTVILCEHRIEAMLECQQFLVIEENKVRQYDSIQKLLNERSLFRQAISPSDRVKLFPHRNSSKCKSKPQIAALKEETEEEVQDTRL

SMILES: O=C(Nc1ccc(N2[C@@H]3CC[C@H]2[C@H](O)C3)cc1C(F)(F)F)c1c[nH]c2cccc(C(F)(F)F)c2c1=O (relative stereo) [Compound 1b]
- Emax: > 100%
- EC50: < 2000 nM

SMILES: O=C(Nc1ccc(N2C3CCC2[C@H](O)C3)cc1C(F)(F)F)c1c[nH]c2cccc(C(F)(F)F)c2c1=O (stereo partly drawn) [Compound 1a]
- Emax: 25 to 100%
- EC50: < 2000 nM

SMILES: O=C(Nc1ccc(N2C3CCC2CC3)cc1C(F)(F)F)c1c[nH]c2cccc(C(F)(F)F)c2c1=O [Formula II, N-(4-(7-azabicyclo[2.2.1]heptan-7-yl)-2-(trifluoromethyl)phenyl)-4-oxo-5-(trifluoromethyl)-1,4-dihydroquinoline-3-carboxamide]
- Emax: 25 to 100%
- EC50: < 2000 nM
